Results taken from ChEMBL document CHEMBL1201861, “Genomics of Drug Sensitity in Cancer screening data, Wellcome Trust Sanger Institute”.
pIC50: −log10 of the molar value.

Key:
[1] = test system: G-402; assay: cells; assay type: functional, cell-based; conditions: Homo sapiens
Description: SANGER: Inhibition of human G-402 cell growth in a cell viability assay.

[2] = test system: NCI-H1993; assay: cells; assay type: functional, cell-based; conditions: Homo sapiens;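 note: growth inhibition of the cancer cell line, assessed with a cell viability assay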
Description: SANGER: Inhibition of human NCI-H1993 cell growth in a cell viability assay.

[3] = test system: KYSE-140; assay: cells; assay type: functional, cell-based; conditions: Homo sapiens;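 note: cell viability assay measuring growth inhibition in human KYSE-140 cells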
Description: SANGER: Inhibition of human KYSE-140 cell growth in a cell viability assay.

[4] = test system: LU-165; assay: cells; assay type: functional, cell-based; conditions: Homo sapiens
Description: SANGER: Inhibition of human LU-165 cell growth in a cell viability assay.

[5] = test system: YAPC; assay: cells; assay type: functional, cell-based; conditions: Homo sapiens;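 note: growth inhibition of YAPC cells, measured with a cell viability assay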
Description: SANGER: Inhibition of human YAPC cell growth in a cell viability assay.

[6] = test system: NCI-H719; assay: cells; assay type: functional, cell-based; conditions: Homo sapiens;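 note: growth inhibition of the cultured cell line, read out with a viability assay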
Description: SANGER: Inhibition of human NCI-H719 cell growth in a cell viability assay.

[7] = test system: LU-99A; assay: cells; assay type: functional, cell-based; conditions: Homo sapiens;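 note: growth inhibition of LU-99A cells, read out with a cell viability assay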
Description: SANGER: Inhibition of human LU-99A cell growth in a cell viability assay.

[8] = test system: CESS; assay: SANGER: Inhibition of human CESS cell growth in a cell viability assay.; assay type: functional, cell-based
[9] = test system: BFTC-909; assay: cells; assay type: functional, cell-based; conditions: Homo sapiens
Description: SANGER: Inhibition of human BFTC-909 cell growth in a cell viability assay.

[10] = test system: NCI-H187; assay: cells; assay type: functional, cell-based; conditions: Homo sapiens;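 note: growth inhibition of NCI-H187 cells, read out as cell viability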
Description: SANGER: Inhibition of human NCI-H187 cell growth in a cell viability assay.

[11] = test system: KYSE-410; assay: cells; assay type: functional, cell-based; conditions: Homo sapiens;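 note: growth inhibition of KYSE-410 cells, measured through a cell viability readout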
Description: SANGER: Inhibition of human KYSE-410 cell growth in a cell viability assay.

[12] = test system: RERF-LC-MS; assay: cells; assay type: functional, cell-based; conditions: Homo sapiens;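 note: growth inhibition of human RERF-LC-MS cells, read out by a cell viability assay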
Description: SANGER: Inhibition of human RERF-LC-MS cell growth in a cell viability assay.

[13] = test system: P31-FUJ; assay: cells; assay type: functional, cell-based; conditions: Homo sapiens;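 note: growth inhibition of P31-FUJ cells, read out with a viability assay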
Description: SANGER: Inhibition of human P31-FUJ cell growth in a cell viability assay.

[14] = test system: HuP-T4; assay: cells; assay type: functional, cell-based; conditions: Homo sapiens;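 note: cell viability assay measuring how much HuP-T4 cell growth is inhibited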
Description: SANGER: Inhibition of human HuP-T4 cell growth in a cell viability assay.

[15] = test system: OVCAR-3; assay: cells; assay type: functional, cell-based; conditions: Homo sapiens;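 note: growth inhibition of human OVCAR-3 cells, determined by a cell viability assay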
Description: SANGER: Inhibition of human OVCAR-3 cell growth in a cell viability assay.

[16] = test system: NCI-H810; assay: cells; assay type: functional, cell-based; conditions: Homo sapiens;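 note: IC50 reflects inhibition of cancer cell line growth, read out with a cell viability assay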
Description: SANGER: Inhibition of human NCI-H810 cell growth in a cell viability assay.

[17] = test system: COLO-680N; assay: cells; assay type: functional, cell-based; conditions: Homo sapiens;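 note: cell viability assay used to measure inhibition of COLO-680N cell growth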
Description: SANGER: Inhibition of human COLO-680N cell growth in a cell viability assay.

[18] = test system: MDA-MB-134-VI; assay: cells; assay type: functional, cell-based; conditions: Homo sapiens
Description: SANGER: Inhibition of human MDA-MB-134-VI cell growth in a cell viability assay.

[19] = test system: EGI-1; assay: cells; assay type: functional, cell-based; conditions: Homo sapiens;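 note: cell viability readout used to gauge growth inhibition of EGI-1 cells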
Description: SANGER: Inhibition of human EGI-1 cell growth in a cell viability assay.

[20] = test system: BL-41; assay: cells; assay type: functional, cell-based; conditions: Homo sapiens;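 note: growth inhibition of human BL-41 cells, read out with a cell viability assay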
Description: SANGER: Inhibition of human BL-41 cell growth in a cell viability assay.

[21] = test system: NB12; assay: cells; assay type: functional, cell-based; conditions: Homo sapiens;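 note: growth inhibition of human NB12 cells, read out by a cell viability assay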
Description: SANGER: Inhibition of human NB12 cell growth in a cell viability assay.

[22] = test system: SNU-16; assay: cells; assay type: functional, cell-based; conditions: Homo sapiens;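 note: growth inhibition of human SNU-16 cells, determined with a cell viability readout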
Description: SANGER: Inhibition of human NCI-SNU-16 cell growth in a cell viability assay.

[23] = test system: SR; assay: cells; assay type: functional, cell-based; conditions: Homo sapiens
Description: SANGER: Inhibition of human SR cell growth in a cell viability assay.

[24] = test system: Ca9-22; assay: cells; assay type: functional, cell-based; conditions: Homo sapiens;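 note: growth inhibition of Ca9-22 cells, read out with a cell viability assay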
Description: SANGER: Inhibition of human Ca9-22 cell growth in a cell viability assay.

[25] = test system: NCI-H2171; assay: cells; assay type: functional, cell-based; conditions: Homo sapiens;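 note: growth inhibition of human NCI-H2171 cells, read out by a cell viability assay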
Description: SANGER: Inhibition of human NCI-H2171 cell growth in a cell viability assay.

[26] = test system: H4; assay: cells; assay type: functional, cell-based; conditions: Homo sapiens
Description: SANGER: Inhibition of human H4 cell growth in a cell viability assay.

[27] = test system: LCLC-97TM1; assay: cells; assay type: functional, cell-based; conditions: Homo sapiens;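 note: cell viability assay measuring growth inhibition of human LCLC-97TM1 cells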
Description: SANGER: Inhibition of human LCLC-97TM1 cell growth in a cell viability assay.

[28] = test system: K052; assay: cells; assay type: functional, cell-based; conditions: Homo sapiens;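 note: Read-out from a cell viability assay, IC50 reflecting suppression of K052 cell growth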
Description: SANGER: Inhibition of human K052 cell growth in a cell viability assay.

[29] = test system: C32; assay: cells; assay type: functional, cell-based; conditions: Homo sapiens;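 note: cell viability assay, with IC50 reflecting inhibition of C32 cell growth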
Description: SANGER: Inhibition of human C32 cell growth in a cell viability assay.

[30] = test system: JIYOYE; assay: cells; assay type: functional, cell-based; conditions: Homo sapiens
Description: SANGER: Inhibition of human JiyoyeP-2003 cell growth in a cell viability assay.

[31] = test system: CAKI-1; assay: cells; assay type: functional, cell-based; conditions: Homo sapiens;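 note: growth inhibition of CAKI-1 cells, measured by a cell viability assay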
Description: SANGER: Inhibition of human CAKI-1 cell growth in a cell viability assay.

[32] = test system: NUGC-3; assay: cells; assay type: functional, cell-based; conditions: Homo sapiens;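 note: growth inhibition of human NUGC-3 cells, read out with a cell viability assay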
Description: SANGER: Inhibition of human NUGC-3 cell growth in a cell viability assay.

[33] = test system: CPC-N; assay: cells; assay type: functional, cell-based; conditions: Homo sapiens;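 note: growth inhibition of CPC-N cells, with a cell viability assay as the readout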
Description: SANGER: Inhibition of human CPC-N cell growth in a cell viability assay.

[34] = test system: UMUC3; assay: cells; assay type: functional, cell-based; conditions: Homo sapiens;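 note: growth inhibition of human UM-UC-3 cells, read out with a cell viability assay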
Description: SANGER: Inhibition of human UM-UC-3 cell growth in a cell viability assay.

[35] = test system: UACC-812; assay: cells; assay type: functional, cell-based; conditions: Homo sapiens
Description: SANGER: Inhibition of human UACC-812 cell growth in a cell viability assay.

[36] = test system: SK-MM-2; assay: cells; assay type: functional, cell-based; conditions: Homo sapiens;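 note: growth inhibition of human SK-MM-2 cells, read out with a cell viability assay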
Description: SANGER: Inhibition of human SK-MM-2 cell growth in a cell viability assay.

[37] = test system: HSC-3; assay: cells; assay type: functional, cell-based; conditions: Homo sapiens
Description: SANGER: Inhibition of human HSC-3 cell growth in a cell viability assay.

[38] = test system: TYK-nu; assay: cells; assay type: functional, cell-based; conditions: Homo sapiens;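 note: growth inhibition of human TYK-nu cells, read out by a cell viability assay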
Description: SANGER: Inhibition of human TYK-nu cell growth in a cell viability assay.

[39] = test system: Capan-2; assay: cells; assay type: functional, cell-based; conditions: Homo sapiens;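 note: Capan-2 cell growth inhibition, read out with a viability assay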
Description: SANGER: Inhibition of human Capan-2 cell growth in a cell viability assay.

[40] = test system: PF-382; assay: cells; assay type: functional, cell-based; conditions: Homo sapiens
Description: SANGER: Inhibition of human PF-382 cell growth in a cell viability assay.

[41] = test system: RPMI-7951; assay: cells; assay type: functional, cell-based; conditions: Homo sapiens
Description: SANGER: Inhibition of human RPMI-7951 cell growth in a cell viability assay.

[42] = test system: M14; assay: cells; assay type: functional, cell-based; conditions: Homo sapiens;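 note: growth inhibition of M14 cells, read out with a cell viability assay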
Description: SANGER: Inhibition of human M14 cell growth in a cell viability assay.

[43] = test system: OE19; assay: cells; assay type: functional, cell-based; conditions: Homo sapiens;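 note: growth inhibition of OE19 cells, measured through a cell viability read-out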
Description: SANGER: Inhibition of human OE19 cell growth in a cell viability assay.

[44] = test system: D-542MG; assay: cells; assay type: functional, cell-based; conditions: Homo sapiens
Description: SANGER: Inhibition of human D-542MG cell growth in a cell viability assay.

[45] = test system: DMS-153; assay: cells; assay type: functional, cell-based; conditions: Homo sapiens
Description: SANGER: Inhibition of human DMS-153 cell growth in a cell viability assay.

[46] = test system: A2058; assay: cells; assay type: functional, cell-based; conditions: Homo sapiens;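 note: reduction of A2058 cell growth, read out with a viability assay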
Description: SANGER: Inhibition of human A2058 cell growth in a cell viability assay.

[47] = test system: OAW-42; assay: cells; assay type: functional, cell-based; conditions: Homo sapiens;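 note: growth inhibition of OAW-42 cells, read out with a cell viability assay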
Description: SANGER: Inhibition of human OAW-42 cell growth in a cell viability assay.

[48] = test system: U-251; assay: cells; assay type: functional, cell-based; conditions: Homo sapiens;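 note: growth inhibition of human U-251 cells, read out through a cell viability assay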
Description: SANGER: Inhibition of human U251 cell growth in a cell viability assay.

[49] = test system: SK-HEP1; assay: cells; assay type: functional, cell-based, SK-HEP-1; conditions: Homo sapiens;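 note: cell viability readout used to quantify reduction in proliferation of human SK-HEP-1 cells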
Description: SANGER: Inhibition of human SK-HEP-1 cell growth in a cell viability assay.

[50] = test system: AGS; assay: cells; assay type: functional, cell-based; conditions: Homo sapiens;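 note: growth inhibition of AGS cells, determined with a cell viability assay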
Description: SANGER: Inhibition of human AGS cell growth in a cell viability assay.

[51] = test system: YT; assay: cells; assay type: functional, cell-based; conditions: Homo sapiens
Description: SANGER: Inhibition of human YT cell growth in a cell viability assay.

[52] = test system: J82; assay: cells; assay type: functional, cell-based; conditions: Homo sapiens;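 note: growth inhibition of J82 cells, read out with a cell viability assay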
Description: SANGER: Inhibition of human J82 cell growth in a cell viability assay.

[53] = test system: BT-20; assay: cells; assay type: functional, cell-based; conditions: Homo sapiens;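 note: cell viability assay measuring suppression of growth in human BT-20 cells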
Description: SANGER: Inhibition of human BT-20 cell growth in a cell viability assay.

[54] = test system: MDA-MB-157; assay: cells; assay type: functional, cell-based; conditions: Homo sapiens
Description: SANGER: Inhibition of human MDA-MB-157 cell growth in a cell viability assay.

[55] = test system: TE-441-T; assay: cells; assay type: functional, cell-based; conditions: Homo sapiens
Description: SANGER: Inhibition of human TE-441-T cell growth in a cell viability assay.

[56] = test system: MEL-JUSO; assay: cells; assay type: functional, cell-based; conditions: Homo sapiens;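 note: growth inhibition of human MEL-JUSO cells, read out with a cell viability assay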
Description: SANGER: Inhibition of human MEL-JUSO cell growth in a cell viability assay.

[57] = test system: NCI-H2081; assay: cells; assay type: functional, cell-based; conditions: Homo sapiens;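 note: growth inhibition of human NCI-H2081 cells, read out with a cell viability assay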
Description: SANGER: Inhibition of human NCI-H2081 cell growth in a cell viability assay.

[58] = test system: MDA-MB-453; assay: cells; assay type: functional, cell-based; conditions: Homo sapiens
Description: SANGER: Inhibition of human MDA-MB-453 cell growth in a cell viability assay.

[59] = test system: GMS-10; assay: cells; assay type: functional, cell-based; conditions: Homo sapiens;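 note: growth inhibition of GMS-10 cells, read out as cell viability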
Description: SANGER: Inhibition of human GMS-10 cell growth in a cell viability assay.

[60] = test system: NCI-H64; assay: cells; assay type: functional, cell-based; conditions: Homo sapiens;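 note: growth inhibition of NCI-H64 cells, read out with a cell viability assay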
Description: SANGER: Inhibition of human NCI-H64 cell growth in a cell viability assay.

[61] = test system: NB1; assay: cells; assay type: functional, cell-based; conditions: Homo sapiens
Description: SANGER: Inhibition of human NB1 cell growth in a cell viability assay.

[62] = test system: LC4-1; assay: cells; assay type: functional, cell-based; conditions: Homo sapiens;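 note: growth inhibition of LC4-1 cells, read out with a cell viability assay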
Description: SANGER: Inhibition of human LC4-1 cell growth in a cell viability assay.

[63] = test system: NCI-H1693; assay: cells; assay type: functional, cell-based; conditions: Homo sapiens;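 note: growth inhibition of the human cell line, read out with a cell viability assay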
Description: SANGER: Inhibition of human NCI-H1693 cell growth in a cell viability assay.

[64] = test system: NCI-H2030; assay: cells; assay type: functional, cell-based; conditions: Homo sapiens;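 note: growth inhibition of human NCI-H2030 cells, read out by a cell viability assay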
Description: SANGER: Inhibition of human NCI-H2030 cell growth in a cell viability assay.

CO[C@@]12[C@H](COC(N)=O)C3=C(C(=O)C(C)=C(N)C3=O)N1C[C@@H]1N[C@@H]12 [MITOMYCIN]
pIC50 [1]: 7.07
pIC50 [2]: < 4.80
pIC50 [3]: 6.42
pIC50 [4]: 6.29
pIC50 [5]: 5.36
pIC50 [6]: 7.45
pIC50 [7]: 6.65
pIC50 [8]: 6.65
pIC50 [9]: 7.07
pIC50 [10]: 6.15
pIC50 [11]: 6.23
pIC50 [12]: 5.99
pIC50 [13]: 5.46
pIC50 [14]: 6.97
pIC50 [15]: 5.95
pIC50 [16]: 6.60
pIC50 [17]: 6.61
pIC50 [18]: 5.67
pIC50 [19]: 5.62
pIC50 [20]: 6.53
pIC50 [21]: 5.92
pIC50 [22]: 5.17
pIC50 [23]: > 7.20
pIC50 [24]: 6.81
pIC50 [25]: 5.82
pIC50 [26]: > 7.20
pIC50 [27]: 6.86
pIC50 [28]: 6.83
pIC50 [29]: 5.82
pIC50 [30]: 6.20
pIC50 [31]: 7.63
pIC50 [32]: 7.77
pIC50 [33]: 6.42
pIC50 [34]: 6.99
pIC50 [35]: < 4.80
pIC50 [36]: 5.57
pIC50 [37]: 7.12
pIC50 [38]: 7.23
pIC50 [39]: 5.56
pIC50 [40]: 6.60
pIC50 [41]: 6.78
pIC50 [42]: 5.87
pIC50 [43]: 6.44
pIC50 [44]: 6.22
pIC50 [45]: 6.37
pIC50 [46]: 6.94
pIC50 [47]: 7.05
pIC50 [48]: 6.89
pIC50 [49]: 6.19
pIC50 [50]: 6.98
pIC50 [51]: 6.33
pIC50 [52]: > 7.20
pIC50 [53]: 6.51
pIC50 [54]: 5.66
pIC50 [55]: 5.80
pIC50 [56]: 7.29
pIC50 [57]: 6.13
pIC50 [58]: 5.97
pIC50 [59]: 5.42
pIC50 [60]: 5.81
pIC50 [61]: 6.73
pIC50 [62]: 5.91
pIC50 [63]: 6.05
pIC50 [64]: 6.68

CC(C)=CC[C@@H](O)C1=CC(=O)c2c(O)ccc(O)c2C1=O [SHIKONIN]
pIC50 [1]: 6.05
pIC50 [2]: 5.53
pIC50 [3]: 6.43
pIC50 [4]: 6.20
pIC50 [5]: < 4.80
pIC50 [6]: 5.58
pIC50 [7]: 5.89
pIC50 [8]: 6.11
pIC50 [9]: 5.44
pIC50 [10]: 5.63
pIC50 [11]: 6.12
pIC50 [12]: 5.38
pIC50 [13]: 5.68
pIC50 [14]: 5.87
pIC50 [15]: 6.42
pIC50 [16]: 6.30
pIC50 [17]: 6.23
pIC50 [18]: 6.15
pIC50 [19]: 5.60
pIC50 [20]: 6.32
pIC50 [21]: 6.18
pIC50 [22]: < 4.80
pIC50 [23]: 6.85
pIC50 [24]: 6.24
pIC50 [25]: 6.04
pIC50 [26]: 6.55
pIC50 [27]: 6.21
pIC50 [28]: 5.96
pIC50 [29]: 5.57
pIC50 [30]: 5.86
pIC50 [31]: 6.05
pIC50 [32]: 6.12
pIC50 [33]: < 4.80
pIC50 [34]: 6.01
pIC50 [35]: 5.29
pIC50 [36]: 6.30
pIC50 [37]: 6.47
pIC50 [38]: 5.94
pIC50 [39]: 6.00
pIC50 [40]: 6.10
pIC50 [41]: 6.81
pIC50 [42]: 5.83
pIC50 [43]: 6.09
pIC50 [44]: 6.24
pIC50 [45]: < 4.80
pIC50 [46]: 6.04
pIC50 [47]: 6.24
pIC50 [48]: 5.84
pIC50 [49]: 6.26
pIC50 [50]: 6.21
pIC50 [51]: 6.42
pIC50 [52]: 6.85
pIC50 [53]: 5.59
pIC50 [54]: 6.20
pIC50 [55]: > 7.20
pIC50 [56]: 6.27
pIC50 [57]: 5.82
pIC50 [58]: 5.60
pIC50 [59]: 4.94
pIC50 [60]: 6.26
pIC50 [61]: 5.99
pIC50 [62]: 6.44
pIC50 [63]: < 4.80
pIC50 [64]: 6.25
